Source: ChEMBL document CHEMBL1201862, “PubChem BioAssay data set” (2004)
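Step 1: Grow cells in 96-well plates. Step 2: Expose to compound for 48 hours at 5 concentrations. Step 3: Interpolate endpoints linearly; if unreached, use highest concentration. Here, GI50 denotes the concentration required for 50% inhibition of growth.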 Calls of active or inactive are those of the source. No stated cut-off is given here; in the data, active = GI50 up to about 1.1 µM and inactive = higher.

Tests used:
Test in all cases: inhibition of tumour cell growth, NCI panel, 48 h
[1] = test system: 786-0
[2] = test system: A498
[3] = test system: A549
[4] = test system: ACHN
[5] = test system: CAKI-1
[6] = test system: CCRF-CEM
[7] = test system: COLO 205
[8] = test system: DMS-114
[9] = test system: DMS-273
[10] = test system: EKVX
[11] = test system: HCT-116
[12] = test system: HCT-15
[13] = test system: HL-60
[14] = test system: HOP-18
[15] = test system: HOP-62
[16] = test system: HOP-92
[17] = test system: HT-29
[18] = test system: IGROV-1
[19] = test system: K562
[20] = test system: KM-20L2
[21] = test system: KM12
[22] = test system: LOX IMVI
[23] = test system: LXFL 529
[24] = test system: M14
[25] = test system: M19-MEL
[26] = test system: MOLT-4
[27] = test system: Malme-3M
[28] = test system: NCI-H226
[29] = test system: NCI-H23
[30] = test system: NCI-H460
[31] = test system: NCI-H522
[32] = test system: OVCAR-4
[33] = test system: OVCAR-5
[34] = test system: OVCAR-8
[35] = test system: RPMI-8226
[36] = test system: RXF 393
[37] = test system: RXF 631
[38] = test system: SF-268
[39] = test system: SF-295
[40] = test system: SF-539
[41] = test system: SK-MEL-28
[42] = test system: SK-MEL-2
[43] = test system: SK-MEL-5
[44] = test system: SK-OV-3
[45] = test system: SN12C
[46] = test system: SNB-19
[47] = test system: SNB-75
[48] = test system: SNB-78
[49] = test system: SR
[50] = test system: SW-620
[51] = test system: TK-10
[52] = test system: U-251
[53] = test system: UACC-257
[54] = test system: UACC-62
[55] = test system: UO-31
[56] = test system: XF498
[57] = test system: DLD-1
[58] = test system: HCC 2998
[59] = test system: OVCAR-3

Measured: GI50

CC(C)(C)N/N=C(\Cc1occc(=O)c1O)C(=O)Nc1ccc([N+](=O)[O-])cc1[N+](=O)[O-]
> 100 µM: [12]
inactive: [1] > 100 µM | [2] > 100 µM | [3] > 100 µM | [4] > 100 µM | [5] > 100 µM | [6] > 100 µM | [7] > 100 µM | [8] > 100 µM | [9] > 100 µM | [10] 66.5 µM | [11] > 100 µM | [13] > 100 µM | [14] > 100 µM | [15] > 100 µM | [16] > 100 µM | [17] > 100 µM | [18] > 100 µM | [19] > 100 µM | [20] > 100 µM | [21] > 100 µM | [22] > 100 µM | [23] > 100 µM | [24] > 100 µM | [25] > 100 µM | [26] > 100 µM | [27] > 100 µM | [28] > 100 µM | [29] > 100 µM | [30] > 100 µM | [31] > 100 µM | [32] > 100 µM | [33] > 100 µM | [34] > 100 µM | [35] > 100 µM | [36] > 100 µM | [37] > 100 µM | [38] > 100 µM | [39] > 100 µM | [40] > 100 µM | [41] > 100 µM | [42] > 100 µM | [43] > 100 µM | [44] > 100 µM | [45] > 100 µM | [46] > 100 µM | [47] > 100 µM | [48] > 100 µM | [49] > 100 µM | [50] > 100 µM | [51] > 100 µM | [52] > 100 µM | [53] > 100 µM | [54] > 100 µM | [55] > 100 µM | [56] > 100 µM

O=C(CCc1nnc2s/c(=C\c3ccc([N+](=O)[O-])cc3)c(=O)n12)Nc1ccc(Cl)c(Cl)c1
inactive: [1] 17.9 µM | [2] 85.3 µM | [3] 40.7 µM | [4] 36.4 µM | [5] 41.9 µM | [6] 20.2 µM | [7] 28.1 µM | [57] 19.3 µM | [8] 17.3 µM | [9] 24.5 µM | [58] 22.3 µM | [11] 32.1 µM | [13] 17.3 µM | [15] 20.3 µM | [16] 38.6 µM | [17] 30.3 µM | [18] 24.7 µM | [19] 20.3 µM | [20] 47.9 µM | [21] 16 µM | [22] 15.3 µM | [23] 13.4 µM | [24] 21.6 µM | [25] 31.6 µM | [26] 25.1 µM | [27] 29.4 µM | [28] 14.4 µM | [29] 25.8 µM | [30] 46.1 µM | [31] 17.3 µM | [59] 13.1 µM | [32] 18.6 µM | [33] 36.2 µM | [34] 20.1 µM | [35] 20.6 µM | [36] 18.2 µM | [37] 49.9 µM | [38] 18.5 µM | [39] 25.1 µM | [40] 17.9 µM | [41] 21.8 µM | [42] 27.7 µM | [43] 58.1 µM | [44] 38.5 µM | [45] 25.2 µM | [46] 72.9 µM | [47] 10.4 µM | [48] 25.4 µM | [50] 25.2 µM | [51] 34 µM | [52] 16.6 µM | [53] 85.1 µM | [54] 26.5 µM | [55] 41.5 µM | [56] 27.6 µM
24.7 µM: [12]

Cc1ccc(S(=O)(=O)c2ccccn2)cc1
inactive: [1] > 100 µM | [2] > 100 µM | [3] > 100 µM | [4] > 100 µM | [5] > 100 µM | [6] > 100 µM | [7] > 100 µM | [57] > 100 µM | [8] > 100 µM | [9] > 100 µM | [10] > 100 µM | [58] > 100 µM | [11] > 100 µM | [13] > 100 µM | [14] > 100 µM | [15] > 100 µM | [16] > 100 µM | [17] > 100 µM | [18] > 100 µM | [19] > 100 µM | [20] > 100 µM | [21] > 100 µM | [22] > 100 µM | [23] > 100 µM | [24] > 100 µM | [25] > 100 µM | [26] > 100 µM | [27] > 100 µM | [28] > 100 µM | [29] > 100 µM | [30] > 100 µM | [31] > 100 µM | [59] > 100 µM | [32] > 100 µM | [33] 46.5 µM | [34] > 100 µM | [35] > 100 µM | [36] > 100 µM | [37] > 100 µM | [38] > 100 µM | [39] > 100 µM | [40] > 100 µM | [41] > 100 µM | [42] > 100 µM | [43] > 100 µM | [44] > 100 µM | [45] > 100 µM | [46] > 100 µM | [47] 90.8 µM | [48] > 100 µM | [50] > 100 µM | [51] > 100 µM | [52] > 100 µM | [53] > 100 µM | [54] > 100 µM | [55] > 100 µM | [56] > 100 µM
> 100 µM: [12]

Cn1c(=O)nc2n(-c3ccc(O)cc3)c3ccccc3nc-2c1=O
> 100 µM: [12]
inactive: [1] 17.3 µM | [2] > 100 µM | [3] 36.7 µM | [4] 2.78 µM | [5] 13.7 µM | [6] 33 µM | [7] 23.9 µM | [57] > 100 µM | [8] 22.5 µM | [9] 11.5 µM | [10] > 100 µM | [58] 29.9 µM | [11] > 100 µM | [13] > 100 µM | [14] > 100 µM | [15] 55.8 µM | [16] 26.4 µM | [17] > 100 µM | [18] > 100 µM | [19] > 100 µM | [20] 64.3 µM | [21] 55.3 µM | [23] > 100 µM | [24] 20.4 µM | [25] 20 µM | [26] 54.5 µM | [27] 18.9 µM | [28] 92.3 µM | [29] 23.3 µM | [30] 11 µM | [31] > 100 µM | [59] 17.9 µM | [32] > 100 µM | [33] > 100 µM | [34] 44.5 µM | [35] 63.7 µM | [37] 63.5 µM | [38] 23.2 µM | [39] > 100 µM | [40] 5.56 µM | [41] > 100 µM | [42] 82.2 µM | [43] 18.7 µM | [44] > 100 µM | [45] > 100 µM | [46] > 100 µM | [47] 9.23 µM | [48] > 100 µM | [50] 76.4 µM | [51] > 100 µM | [52] 14 µM | [53] > 100 µM | [54] 16.4 µM | [55] > 100 µM | [56] 60 µM
